Values joined by “and” are separate entries in the source; they are usually repeats but may differ in a detail not shown here. Equal values may be shown once. Read-outs that look alike come from different tables or passages of the source. *1 amine or outer side, *2 acyl side, *3 side chain or, on linkers, in order; H or OH if unused. Where a SMILES comes first, the peptide text is derived from it. [ ]: non-standard residue; d: D form. ξ: configuration not given here. X3 = C#CCOc1ccc([C@@H](OC)[C@H](N[*:1])C(=O)[*:2])cc1; ξNMeTrp(1-Me) = CNC(Cc1cn(C)c2ccccc12)C(=O)O; X8 = CC(CO)C[C@@H](C(=O)[*:2])N(C)[*:1]; NMeL = CN[C@@H](CC(C)C)C(=O)O; ξV = CC(C)C(N)C(=O)O
Key:
[1] = molecular target: ClpC1-NTD substrate, M. tuberculosis ClpC1P1P2 (Mycobacterium tuberculosis, UniProt P9WPC9); experiment: biochemical; assay type: biochemical
Sequence of ClpC1-NTD substrate, M. tuberculosis ClpC1P1P2 (P9WPC5 whole entry): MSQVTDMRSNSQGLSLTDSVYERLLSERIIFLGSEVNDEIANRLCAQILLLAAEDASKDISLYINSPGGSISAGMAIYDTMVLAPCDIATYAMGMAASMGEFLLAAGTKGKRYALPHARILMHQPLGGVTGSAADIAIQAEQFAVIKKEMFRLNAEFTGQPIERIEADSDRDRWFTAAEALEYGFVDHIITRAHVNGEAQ
Sequence of ClpC1-NTD substrate, M. tuberculosis ClpC1P1P2 (P9WPC9 whole entry): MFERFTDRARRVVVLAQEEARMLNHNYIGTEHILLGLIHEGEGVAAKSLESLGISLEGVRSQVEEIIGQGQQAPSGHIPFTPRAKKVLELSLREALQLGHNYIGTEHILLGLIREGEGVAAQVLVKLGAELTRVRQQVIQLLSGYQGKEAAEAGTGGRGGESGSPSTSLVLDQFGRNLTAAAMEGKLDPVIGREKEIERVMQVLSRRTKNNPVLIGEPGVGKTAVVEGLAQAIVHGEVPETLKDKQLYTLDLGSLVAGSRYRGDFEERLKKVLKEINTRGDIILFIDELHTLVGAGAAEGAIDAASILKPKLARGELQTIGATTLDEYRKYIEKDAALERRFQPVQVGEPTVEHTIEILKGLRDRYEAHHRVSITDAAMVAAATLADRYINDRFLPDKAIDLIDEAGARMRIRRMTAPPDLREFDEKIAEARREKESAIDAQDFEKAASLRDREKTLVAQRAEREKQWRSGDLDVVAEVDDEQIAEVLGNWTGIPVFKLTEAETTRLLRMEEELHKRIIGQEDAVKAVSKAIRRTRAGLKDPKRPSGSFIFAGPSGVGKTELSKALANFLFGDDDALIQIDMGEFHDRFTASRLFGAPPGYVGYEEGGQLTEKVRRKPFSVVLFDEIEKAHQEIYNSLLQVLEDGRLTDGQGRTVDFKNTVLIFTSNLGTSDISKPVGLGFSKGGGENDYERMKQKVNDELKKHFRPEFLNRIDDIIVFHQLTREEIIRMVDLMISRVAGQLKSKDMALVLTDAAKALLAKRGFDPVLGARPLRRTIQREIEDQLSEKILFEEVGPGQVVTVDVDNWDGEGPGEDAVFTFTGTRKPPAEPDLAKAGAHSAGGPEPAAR
Sequence of ClpC1-NTD substrate, M. tuberculosis ClpC1P1P2 (P9WPC3 whole entry, further chain): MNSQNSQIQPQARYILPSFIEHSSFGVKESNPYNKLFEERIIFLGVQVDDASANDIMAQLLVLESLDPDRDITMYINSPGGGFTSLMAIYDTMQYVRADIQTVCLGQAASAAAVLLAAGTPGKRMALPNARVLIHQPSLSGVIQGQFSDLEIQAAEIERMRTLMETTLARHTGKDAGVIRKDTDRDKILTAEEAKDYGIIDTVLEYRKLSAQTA

[2] = molecular target: ClpC1 NTD protein (M. tuberculosis) (Mycobacterium tuberculosis, UniProt P9WPC9); experiment: biochemical; assay type: binding
Sequence of ClpC1 NTD protein (M. tuberculosis) (P9WPC9 1-156, looked up, natural form): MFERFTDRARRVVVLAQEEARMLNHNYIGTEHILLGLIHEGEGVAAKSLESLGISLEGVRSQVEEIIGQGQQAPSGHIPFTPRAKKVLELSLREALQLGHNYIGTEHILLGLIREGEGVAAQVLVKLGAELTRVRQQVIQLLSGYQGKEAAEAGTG

[3] = assay type: in vitro ADME, Human; settings: for Hepatocyte Human: clearance in hepatocytes
Protocol: (§1) Cryopreserved hepatocytes are incubated in an appropriate buffer system containing 50% species serum. Following an acclimation period (15–30 min) in an incubator (37 °C, 5−10% CO2, 85–95% humidity) the test compound is added to the hepatocyte suspension (pH 7.4, typical cell density of about 1 million cells/mL; final concentration of test compound is 1 µM, final DMSO concentration <0.05% v/v). The cells are incubated for up to 6 h and samples are taken at 6 different time points. Samples are then quenched with acetonitrile and pelleted by centrifugation. The remaining amount of parent compound in the supernatants is then analysed by HPLC-MS/MS. Clearance is calculated from compound half-lives using the well-stirred liver model and is converted to clearance stated as % of the liver blood flow (% Qh).

[4] = molecular target: His6-tagged ClpC1-NTD substrate, M. smegmatis ClpC1P1P2 (UniProt A0R574+P9WPC9); experiment: biochemical; assay type: biochemical
Sequence of His6-tagged ClpC1-NTD substrate, M. smegmatis ClpC1P1P2 (P9WPC9 1-156, looked up, natural form): as above
Sequence of His6-tagged ClpC1-NTD substrate, M. smegmatis ClpC1P1P2 (A0R574 whole entry): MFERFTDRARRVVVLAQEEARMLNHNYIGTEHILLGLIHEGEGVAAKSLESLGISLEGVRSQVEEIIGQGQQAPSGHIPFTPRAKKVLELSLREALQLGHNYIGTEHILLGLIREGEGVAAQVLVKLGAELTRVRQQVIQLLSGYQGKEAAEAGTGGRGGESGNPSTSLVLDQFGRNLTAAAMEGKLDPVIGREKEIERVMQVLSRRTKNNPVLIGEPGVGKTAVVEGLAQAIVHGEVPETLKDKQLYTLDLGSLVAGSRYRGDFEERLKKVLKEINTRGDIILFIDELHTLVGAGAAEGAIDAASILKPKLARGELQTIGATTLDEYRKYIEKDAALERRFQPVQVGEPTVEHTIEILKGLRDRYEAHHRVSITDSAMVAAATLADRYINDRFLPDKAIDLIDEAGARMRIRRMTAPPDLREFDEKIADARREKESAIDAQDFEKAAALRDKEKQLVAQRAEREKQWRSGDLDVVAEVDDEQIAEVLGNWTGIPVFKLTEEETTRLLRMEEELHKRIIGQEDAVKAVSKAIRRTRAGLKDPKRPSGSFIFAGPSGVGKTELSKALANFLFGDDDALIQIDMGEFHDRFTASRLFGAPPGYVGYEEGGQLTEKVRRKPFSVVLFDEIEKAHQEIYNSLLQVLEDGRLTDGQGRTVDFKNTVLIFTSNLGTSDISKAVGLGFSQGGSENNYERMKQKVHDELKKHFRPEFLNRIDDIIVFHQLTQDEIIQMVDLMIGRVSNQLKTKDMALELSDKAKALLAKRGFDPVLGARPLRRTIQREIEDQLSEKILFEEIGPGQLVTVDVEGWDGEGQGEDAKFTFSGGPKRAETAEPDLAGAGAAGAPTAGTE

[5] = Hepatocyte stability, mice; assay type: in vitro ADME; settings: for Hepatocyte Mice: clearance in hepatocytes
Protocol: as §1

[6] = assay type: in vitro ADME, Rat
Protocol: as §1

[7] = test system: Caco-2 monolayers; experiment: in vitro
Description: (§2) Supplementary Table 1. Structure-Activity Relationships part 1 (SPR, Caco-2) […]
(§3) SPR. Mean values ± standard deviation. Footnotes indicate the number of measurements performed for the respective compound: a) n = […]
(§4) [5] Permeability across Caco-2 monolayers in P(A−B): apical to basolateral and P(B−A): basolateral to apical direction (values reported in 10-
(§5) 6 cm s-1); efflux ratio = P(B−A)/P(A−B); Int. perm: mean value of P(A−B) and P(B−A). […] Influence of Trp-Nα methylation on P(A-B) and efflux
(§6) ratio. Bold: positive influence.

[8] = in vitro; settings: human; for Papp A→B: apical to basolateral; for Papp B→A: basolateral to apical
Description: as §2, §3, §4, §5, §6

[9] = read-out: DC50, single measurements
[10] = read-out: KD ClpC1-NTD Mean ± SD
[11] = SPR (Supplementary Table 1), read-out: KD ClpC1-NTD Mean ± SD
[12] = SPR, single independent measurements, read-out: KD ClpC1-NTD
[13] = Caco-2, Caco-2 permeability P (A-B)
[14] = Caco-2, Caco-2 permeability P (B-A)
[15] = mean value of P(A−B) and P(B−A)

Compound	1-Dmax, Mean [1]	1-Dmax, single measurements [1]	DC50 ([1]; read-out: DC50, Mean)	DC50 [1, 9]	koff ClpC1-NTD [2]	Kd ([2]; read-out: KD ClpC1-NTD)	Kd [2, 10]	Hepatocyte Stability Human QH [3]	1-Dmax, Mean [4]	1-Dmax, single measurements [4]	DC50 ([4]; read-out: DC50, Mean)	DC50 [4, 9]	Kd [2, 11]	Kd [2, 12]	Hepatocyte Human [3]	Hepatocyte Mice [5]	Hepatocyte Stability Rat QH ([6]; Rat)	Hepatocyte Rat ([6]; clearance in hepatocytes)	Papp A→B [8, 13]	Caco-2 Int. Perm [7, 15]	other results
COC(c1ccc(OCc2cn(CCOCCOCCOCCOCCn3cc(COc4ccc(C(OC)C5NC(=O)C(C)NC(=O)C(CC(C)CO)N(C)C(=O)C(Cc6cn(C)c7ccccc67)N(C)C(=O)C(C(C)C)NC(=O)C(CC(C)C)N(C)C(=O)C(C(C)C)NC5=O)cc4)nn3)nn2)cc1)C1NC(=O)C(C)NC(=O)C(CC(C)CO)N(C)C(=O)C(Cc2cn(C)c3ccccc23)N(C)C(=O)C(C(C)C)NC(=O)C(CC(C)C)N(C)C(=O)C(C(C)C)NC1=O (centres unmarked) [SI-65]	84%	84.7% and 83.2%	8000 nM	7000 nM and 9000 nM	5E-3 1E-2 1/s	2.29 nM and 1.35 nM	1.8 ± 0.7 nM	12.386%	92%	86.9% and 92.9% and 97.0%	5200 nM	6100 nM and 5000 nM and 4500 nM	–	–	–	–	–	–	–	–	Hepatocyte Stability Mouse QH [5]: 15.001%; Hepatocyte Stability Rat QH [6]: 16.284%; CACO permeability PEAB ([7]; Caco-2): <0.0000086 cm/sec; CACO permeability PEBA ([7]; Caco-2): <0.0000051 cm/sec; Caco-2 Int. Perm ([7]; Caco-2): 6.9 10-6 cm s-1
CO[C@H](c1ccc(OCc2cn(CCCCCn3cc(COc4ccc([C@@H](OC)[C@@H]5NC(=O)[C@H](C)NC(=O)[C@H](C[C@@H](C)CO)N(C)C(=O)[C@H](Cc6cn(C)c7ccccc67)N(C)C(=O)[C@H](C(C)C)NC(=O)[C@H](CC(C)C)N(C)C(=O)[C@H](C(C)C)NC5=O)cc4)nn3)nn2)cc1)[C@@H]1NC(=O)[C@H](C)NC(=O)[C@H](C[C@@H](C)CO)N(C)C(=O)[C@H](Cc2cn(C)c3ccccc23)N(C)C(=O)[C@H](C(C)C)NC(=O)[C@H](CC(C)C)N(C)C(=O)[C@H](C(C)C)NC1=O [SI-66]	–	–	–	–	–	–	–	–	–	–	–	–	7 ± 2 nM	8.57 nM and 6.41 nM	12 %Qh	15 %Qh	9.964%	10 %Qh	< 4.8 ×10⁻⁶ cm/s	3.7 10-6 cm s-1	koff ([2]; SPR dissociation rate constant, read-out: koff ClpC1-NTD Mean ± SD): 0.01 s⁻¹; Papp B→A [8, 14]: < 2.5 ×10⁻⁶ cm/s
CO[C@H](c1ccccc1)[C@@H]1NC(=O)[C@H](C)NC(=O)[C@H](C[C@@H](C)CO)N(C)C(=O)[C@H](Cc2cn(Cc3cn(CCCCCn4cc(Cn5cc(C[C@H]6C(=O)N(C)[C@@H](C[C@@H](C)CO)C(=O)N[C@@H](C)C(=O)N[C@@H]([C@H](OC)c7ccccc7)C(=O)N[C@@H](C(C)C)C(=O)N(C)[C@@H](CC(C)C)C(=O)N[C@@H](C(C)C)C(=O)N6C)c6ccccc65)nn4)nn3)c3ccccc23)N(C)C(=O)[C@H](C(C)C)NC(=O)[C@H](CC(C)C)N(C)C(=O)[C@H](C(C)C)NC1=O [SI-57]	–	–	–	–	–	–	–	–	–	–	–	–	1.6 ± 0.8 nM	2.13 nM and 1 nM	12 %Qh	15 %Qh	8.056%	8 %Qh	< 2.2 ×10⁻⁶ cm/s	1.5 10-6 cm s-1	1-Dmax, single measurements ([1]; Mtb, Measurement 1-4): 68.4% and 44.2% and 52.6%; DC50 ([1]; Mtb, Measurement 1-4, read-out: DC50, single measurements): 20900 nM and 18700 nM and 31500 nM; 1-Dmax (percent substrate remaining at maximal degradation) ([1]; Mtb, mean of the measurements, read-out: 1-Dmax, Mean): 55%; DC50 ([1]; Mtb, mean of the measurements, read-out: DC50, Mean): 23700 nM; koff ClpC1-NTD ([2]; SPR, single independent measurements): 0.001 s⁻¹; koff ([2]; SPR, single independent measurements, read-out: koff ClpC1-NTD): 0.002 s⁻¹; 1-Dmax, single measurements ([4]; Msm, Measurement 1-6): 73.5% and 61.5% and 74.0%; 1-Dmax (percent substrate remaining at maximal degradation) ([4]; Msm, Measurement 1-6, read-out: 1-Dmax, single measurements): 60.5%; 1-Dmax (percent substrate remaining at maximal degradation) ([4]; Msm, mean of the measurements, read-out: 1-Dmax, Mean): 67%; DC50 ([4]; Msm, mean of the measurements, read-out: DC50, Mean): 23000 nM; Papp B→A [8, 14]: < 0.7 ×10⁻⁶ cm/s
C#CCOc1ccc([C@@H](OC)[C@@H]2NC(=O)[C@@H](C)NC(=O)[C@H](CC(C)CO)N(C)C(=O)C(Cc3cn(C)c4ccccc34)N(C)C(=O)C(C(C)C)NC(=O)[C@H](CC(C)C)N(C)C(=O)[C@@H](C(C)C)NC2=O)cc1 (some centres unmarked) [SI-64] (cyclo([NMeL][ξV][ξNMeTrp(1-Me)][X8][dA][X3][dV]))	–	–	–	–	–	–	–	–	–	–	–	–	11 ± 1 nM	12.1 nM and 10.5 nM	22 %Qh	34 %Qh	49.748%	50 %Qh	–	29.0 10-6 cm s-1	Hepatocyte Stability Human QH ([3]; Human): 21.688%; Hepatocyte Stability Mouse QH ([5]; Mouse): 34.335%; efflux ratio ([8]; Caco-2): 2.9; Papp A→B ([8]; Caco-2, CACO permeability PEAB): 17 ×10⁻⁶ cm/s; Papp B→A ([8]; Caco-2, CACO permeability PEBA): 44 ×10⁻⁶ cm/s; CACO permeability PEAB ([7]; apical to basolateral): 0.000014999999999999999 cm/s; CACO permeability PEBA ([7]; basolateral to apical): 0.000042999999999999995 cm/s; Permeability Correlation P (A-B) ([7]; influence of Trp-Nα methylation on P(A-B), matched pair, listed under the methylated partner): > 75; Permeability Correlation Ratio ([7]; influence of Trp-Nα methylation on efflux ratio, matched pair, listed under the methylated partner): > 31
CCCCCn1cc(C[C@@H]2NC(=O)[C@H](CC(C)C)N(C)C(=O)[C@H](C(C)C)NC(=O)[C@H]([C@H](OC)c3ccccc3)NC(=O)[C@H](C)NC(=O)[C@H](C[C@@H](C)CO)N(C)C(=O)[C@H](Cc3cn(C)c4ccccc34)NC2=O)nn1 [Compound 24]	–	–	–	–	–	–	–	–	–	–	–	–	–	–	–	35 %Qh	33.303%	33 %Qh	< 0.3 ×10⁻⁶ cm/s	5.6 10-6 cm s-1	Kd ([2]; SPR, individual measurements (source data), read-out: KD ClpC1-NTD): 4.68 nM and 4.44 nM; Kd ([2]; SPR, read-out: ClpC1-NTD KD Mean ± SD): 4.6 ± 0.2 nM; Hepatocyte Stability Human QH ([3]; Human): 17.172%; Hepatocyte Stability Mouse QH ([5]; Mouse): 35.166%; Papp A→B ([8]; Caco-2, CACO permeability PEAB): < 0.27 ×10⁻⁶ cm/s; Papp B→A ([8]; Caco-2, CACO permeability PEBA): 13 ×10⁻⁶ cm/s; CACO permeability PEBA ([7]; basolateral to apical): 0.000011 cm/s
CO[C@H](c1ccccc1)[C@@H]1NC(=O)[C@H](C)NC(=O)[C@H](C[C@@H](C)CO)N(C)C(=O)[C@H](Cc2cn(CCCCn3cc(C[C@H]4C(=O)N(C)[C@@H](C[C@@H](C)CO)C(=O)N[C@@H](C)C(=O)N[C@@H]([C@H](OC)c5ccccc5)C(=O)N[C@@H](C(C)C)C(=O)N(C)[C@@H](CC(C)C)C(=O)N[C@@H](C(C)C)C(=O)N4C)c4ccccc43)c3ccccc23)N(C)C(=O)[C@H](C(C)C)NC(=O)[C@H](CC(C)C)N(C)C(=O)[C@H](C(C)C)NC1=O [SI-61]	42%	36.8% and 46.3%	7200 nM	7300 nM and 7000 nM	8E-4 5E-4 1/s	0.581 nM and 0.49 nM	0.54 ± 0.06 nM	12.386%	42%	37.4% and 43.6% and 42.4% and 44.3%	5300 nM	5.3 µM (2×) and 4.6 µM and 5.8 µM	–	–	–	15 %Qh	–	–	–	–	Hepatocyte Stability Mouse QH [5]: 15.001%; Hepatocyte Rat [6]: 6 %Qh; Hepatocyte Stability Rat QH [6]: 6.192%; CACO permeability PEAB ([7]; Caco-2): <0.000 cm/sec; CACO permeability PEBA ([7]; Caco-2): <0.000 cm/sec; Caco-2 Int. Perm ([7]; Caco-2): 2.75 10-6 cm s-1; Caco-2 permeability P (A-B) ([7]; Caco-2): < 4.2 10-6 cm s-1; Caco-2 permeability P (B-A) ([7]; Caco-2): < 1.3 10-6 cm s-1

From publication PMC10914731, “Homo-BacPROTAC-induced degradation of ClpC1 as a strategy against drug-resistant mycobacteria” (Nature Communications, 2024)
